The record followed here is patent publication US10272095B2 (GlaxoSmithKline Intellectual Property Development Limited, priority 2015, dated 2019).

Counter-ions that a name gives are not always drawn.

In the first test the test system is NQO1 specific enzyme activity in BEAS-2B cells. The experiment in a line: BEAS-2B NQO1 MTT assay. The class given is cell-based. To be noted: Homo sapiens, BEAS-2B, 48 h, NQO1 specific enzyme activity induction in BEAS-2B cells, 48 hours; read-out: EC50. From the text:
NAD(P)H:quinone oxidoreductase 1 (NQO1), also called DT diaphorase, is a homodimeric FAD-containing enzyme that catalyzes obligatory NAD(P)H-dependent two-electron reductions of quinones and protects cells against the toxic and neoplastic effects of free radicals and reactive oxygen species arising from one-electron reductions. The transcription of NQO1 is finely regulated by NRF2, and thus NQO1 activity is a good marker for NRF2 activation. On day one, frozen BEAS-2B cells (ATCC) are thawed in a water bath, counted, and re-suspended at a concentration of 250,000 cells/mL. Fifty microliters of cells are plated in 384 well black clear-bottomed plates. Plates are incubated at 37° C., 5% CO2 overnight. On day two, plates are centrifuged and 50 nL of compound or controls are added to the cells. Plates are then incubated at 37° C., 5% CO2 for 48 hours. On day four, medium is aspirated from the plate and crude cell lysates are made by adding 13 uL of 1× Cell Signaling Technologies lysis buffer with 1 Complete, Mini, EDTA-free Protease Inhibitor Tablet (Roche) for each 10 mL of lysis buffer. After lysis plates are incubated for 20 minutes at room temperature. Two microliters of lysate are removed for use in Cell Titer Glo assay (Promega) and MTT cocktail is prepared (Prochaska et. al. 1998) for measurement of NQO1 activity. Fifty microliters of MTT cocktail is added to each well, plate is centrifuged, and analyzed on an Envision plate reader (Perkin Elmer) using Absorbance 570 nm label for 30 minutes. Product formation is measured kinetically and the pEC50 of NQO1 specific activity induction is calculated by plotting the change in absorbance (Delta OD/min) versus the log of compound concentration followed by 3-parameter fitting.
EC50s<1 nM (+++++), EC50s 10 nM-1 nM (++++), EC50s 10-100 nM (+++), EC50s 100 nM-1 uM (++), EC50s 1 uM-10 uM (+), EC50s>10 uM (−), or were not determined (ND).
Turning to `Cc1c(C(CC(=O)O)c2ccc3c(c2)C(N2Cc4ccc(F)cc4OC(C)(C)C2)CC3)ccc2c1nnn2C` (stereo not drawn) [Example 25, 3-(1,4-Dimethyl-1H-benzo[d][1,2,3]triazol-5-yl)-3-(3-(8-fluoro-2,2-dimethyl-2,3-dihydrobenzo[f][1,4]oxazepin-4(5H)-yl)-2,3-dihydro-1H-inden-5-yl)propanoic Acid], the EC50 (usually the concentration giving half of the maximal effect) is 1 to 10 nM.
As for `Cc1cc(F)ccc1C(c1ccc2c(c1)C(N1Cc3ccccc3OC(C)(C)C1)CC2)C(C)(C)C(=O)O` (stereo not drawn) [Example 26, 3-(3-(2,2-Dimethyl-2,3-dihydrobenzo[f][1,4]oxazepin-4(5H)-yl)-2,3-dihydro-1H-inden-5-yl)-3-(4-fluoro-2-methylphenyl)-2,2-dimethylpropanoic Acid], the EC50 lay within 10 to 100 nM.
As for `Cc1c(C(c2ccc3c(c2)C(N2Cc4ccccc4OC(C)(C)C2)CC3)C(C)(C)C(=O)O)ccc2c1nnn2C` (stereo not drawn) [Example 27, 3-(1,4-Dimethyl-1H-benzo[d][1,2,3]triazol-5-yl)-3-(3-(2,2-dimethyl-2,3-dihydrobenzo[f][1,4]oxazepin-4(5H)-yl)-2,3-dihydro-1H-inden-5-yl)-2,2-dimethylpropanoic Acid, 2 Formic Acid Salt], the EC50 is < 1 nM.
The same measure, in the same setting: for `Cc1c(C(CC(=O)O)c2ccc3c(c2)C(N2Cc4cc(C#N)ccc4OC(C)(C)C2)CC3)ccc2c1nnn2C` (stereo not drawn) [Example 28, 3-(3-(7-Cyano-2,2-dimethyl-2,3-dihydrobenzo[f][1,4]oxazepin-4(5H)-yl)-2,3-dihydro-1H-inden-5-yl)-3-(1,4-dimethyl-1H-benzo[d][1,2,3]triazol-5-yl)propanoic Acid, Formic Acid Salt] the value was < 1 nM; for `COc1cc(C(CC(=O)O)c2ccc3c(c2)C(N2Cc4ccccc4OC(C)(C)C2)CC3)c(C)c2nnn(C)c12` (stereo not drawn) [Example 29, 3-(3-(2,2-Dimethyl-2,3-dihydrobenzo[f][1,4]oxazepin-4(5H)-yl)-2,3-dihydro-1H-inden-5-yl)-3-(7-methoxy-1,4-dimethyl-1H-benzo[d][1,2,3]triazol-5-yl)propanoic Acid, Formic Acid Salt], < 1 nM; for `CC[C@@H]1CN(C2CCc3ccc(C(c4ccc5c(nnn5C)c4C)C(C)(C)C(=O)O)cc32)Cc2ccccc2O1` (stereo partly drawn) [Example 30, 3-(1,4-Dimethyl-1H-benzo[d][1,2,3]triazol-5-yl)-3-(3-((R)-2-ethyl-2,3-dihydrobenzo[f][1,4]oxazepin-4(5H)-yl)-2,3-dihydro-1H-inden-5-yl)-2,2-dimethylpropanoic Acid, Formic Acid Salt], 1 to 10 nM.
Same read-out and setting: for `Cc1ccc2c(c1)CN(C1CCc3ccc(C(c4ccc5c(nnn5C)c4C)C(C)(C)C(=O)O)cc31)C[C@@H](C)O2` (stereo partly drawn) [Example 31, 3-(1,4-Dimethyl-1H-benzo[d][1,2,3]triazol-5-yl)-3-(3-((R)-2,7-dimethyl-2,3-dihydrobenzo[f][1,4]oxazepin-4(5H)-yl)-2,3-dihydro-1H-inden-5-yl)-2,2-dimethylpropanoic Acid, Formic Acid Salt] the value was 1 to 10 nM; for `Cc1c(C(c2ccc3c(c2)C(N2Cc4ccccc4O[C@H](C)C2)CC3)C(C)(C)C(=O)O)ccc2c1nnn2C` (stereo partly drawn) [Example 32, 3-(1,4-Dimethyl-1H-benzo[d][1,2,3]triazol-5-yl)-2,2-dimethyl-3-(3-((R)-2-methyl-2,3-dihydrobenzo[f][1,4]oxazepin-4(5H)-yl)-2,3-dihydro-1H-inden-5-yl)propanoic Acid, Formic Acid Salt], 1 to 10 nM.
On the same count and under the same terms, to `Cc1c(C(c2ccc3c(c2)C(N2Cc4cnccc4OC(C)(C)C2)CC3)C(C)(C)C(=O)O)ccc2c1nnn2C` (stereo not drawn) [Example 33, 3-(1,4-Dimethyl-1H-benzo[d][1,2,3]triazol-5-yl)-3-(3-(2,2-dimethyl-2,3-dihydropyrido[3,4-f][1,4]oxazepin-4(5H)-yl)-2,3-dihydro-1H-inden-5-yl)-2,2-dimethylpropanoic Acid, Trifluoroacetic Acid Salt] belongs 1 to 10 nM; to `Cc1c(C(c2ccc3c(c2)C(N2Cc4cccnc4OC(C)(C)C2)CC3)C(C)(C)C(=O)O)ccc2c1nnn2C` (stereo not drawn) [Example 34, 3-(1,4-Dimethyl-1H-benzo[d][1,2,3]triazol-5-yl)-3-(3-(2,2-dimethyl-2,3-dihydropyrido[3,2-f][1,4]oxazepin-4(5H)-yl)-2,3-dihydro-1H-inden-5-yl)-2,2-dimethylpropanoic acid, Formic Acid Salt], 1 to 10 nM.
With `Cc1c(C(CC(=O)O)c2ccc3c(c2)C(N2Cc4ccc(C#N)cc4OC(C)(C)C2)CC3)ccc2c1nnn2C` (stereo not drawn) [Example 35, 3-(3-(8-Cyano-2,2-dimethyl-2,3-dihydrobenzo[f][1,4]oxazepin-4(5H)-yl)-2,3-dihydro-1H-inden-5-yl)-3-(1,4-dimethyl-1H-benzo[d][1,2,3]triazol-5-yl)propanoic Acid, Formic Acid Salt], the EC50 lay within 1 to 10 nM.
On the same count and under the same terms, to `COc1cc(C(CC(=O)O)c2ccc3c(c2)C(N2Cc4cnccc4OC(C)(C)C2)CC3)c(C)c2nnn(C)c12` (stereo not drawn) [Example 36, 3-(3-(2,2-Dimethyl-2,3-dihydropyrido[3,4-f][1,4]oxazepin-4(5H)-yl)-2,3-dihydro-1H-inden-5-yl)-3-(7-methoxy-1,4-dimethyl-1H-benzo[d][1,2,3]triazol-5-yl)propanoic Acid, Formic Acid Salt] belongs 1 to 10 nM; to `CC[C@@H]1CN(C2CCc3ccc(C(c4ccc5c(nnn5C)c4C)C(C)(C)C(=O)O)cc32)Cc2cnccc2O1` (stereo partly drawn) [Example 37, 3-(1,4-Dimethyl-1H-benzo[d][1,2,3]triazol-5-yl)-3-(3-((R)-2-ethyl-2,3-dihydropyrido[3,4-f][1,4]oxazepin-4(5H)-yl)-2,3-dihydro-1H-inden-5-yl)-2,2-dimethylpropanoic Acid, Formic Acid Salt], 1 to 10 nM.
On the same count and under the same terms, to `Cc1c(C(c2ccc3c(c2)C(N2CCOc4ccccc4C2)CC3)C(C)(C)C(=O)O)ccc2c1nnn2C` (stereo not drawn) [Example 38, 3-(3-(2,3-Dihydrobenzo[f][1,4]oxazepin-4(5H)-yl)-2,3-dihydro-1H-inden-5-yl)-3-(1,4-dimethyl-1H-benzo[d][1,2,3]triazol-5-yl)-2,2-dimethylpropanoic Acid, Formic Acid Salt] belongs 1 to 10 nM; to `COc1cc(C(CC(=O)O)c2ccc3c(c2)C(N2Cc4cc(C)ccc4O[C@H](C)C2)CC3)c(C)c2nnn(C)c12` (stereo partly drawn) [Example 39, 3-(3-((R)-2,7-Dimethyl-2,3-dihydrobenzo[f][1,4]oxazepin-4(5H)-yl)-2,3-dihydro-1H-inden-5-yl)-3-(7-methoxy-1,4-dimethyl-1H-benzo[d][1,2,3]triazol-5-yl)propanoic Acid, Formic Acid Salt], 1 to 10 nM.
Consider `Cc1c(C(CC(=O)O)c2ccc3c(c2)C(N2Cc4ccccc4OC(C)(C)C2)CC3)ccc2c1nnn2C` (stereo not drawn) [Example 40, 3-(1,4-Dimethyl-1H-benzo[d][1,2,3]triazol-5-yl)-3-(3-(2,2-dimethyl-2,3-dihydrobenzo[f][1,4]oxazepin-4(5H)-yl)-2,3-dihydro-1H-inden-5-yl)propanoic Acid, Formic Acid Salt], for which the EC50 lay in the range of 1 to 10 nM.
As for `Cc1c(C(c2ccc3c(c2)C(N2Cc4cccnc4O[C@H](C)C2)CC3)C(C)(C)C(=O)O)ccc2c1nnn2C` (stereo partly drawn) [Example 42, 3-(1,4-Dimethyl-1H-benzo[d][1,2,3]triazol-5-yl)-2,2-dimethyl-3-(3-((R)-2-methyl-2,3-dihydropyrido[3,2-f][1,4]oxazepin-4(5H)-yl)-2,3-dihydro-1H-inden-5-yl)propanoic Acid, Formic Acid Salt], the EC50 lay within 1 to 10 nM.
For the compound `COc1cc(C(CC(=O)O)c2ccc3c(c2)C(N2Cc4ccccc4OC(C)(C)C2)CC3)cc2nnn(C)c12` (stereo not drawn) [Example 43, 3-(3-(2,2-Dimethyl-2,3-dihydrobenzo[f][1,4]oxazepin-4(5H)-yl)-2,3-dihydro-1H-inden-5-yl)-3-(7-methoxy-1-methyl-1H-benzo[d][1,2,3]triazol-5-yl)propanoic Acid, Formate Salt], the EC50 was 1 to 10 nM.
For the compound `COc1cc(C(CC(=O)O)c2ccc3c(c2)C(N2Cc4cccnc4OC(C)(C)C2)CC3)c(C)c2nnn(C)c12` (stereo not drawn) [Example 44, 3-(3-(2,2-Dimethyl-2,3-dihydropyrido[3,2-f][1,4]oxazepin-4(5H)-yl)-2,3-dihydro-1H-inden-5-yl)-3-(7-methoxy-1,4-dimethyl-1H-benzo[d][1,2,3]triazol-5-yl)propanoic Acid, Formic Acid Salt], the EC50 lay in the range of 1 to 10 nM.
Still for that read-out and setting: to `CC[C@@H]1CN(C2CCc3ccc(C(CC(=O)O)c4cc(OC)c5c(nnn5C)c4C)cc32)Cc2ccccc2O1` (stereo partly drawn) [Example 45, 3-(3-((R)-2-Ethyl-2,3-dihydrobenzo[f][1,4]oxazepin-4(5H)-yl)-2,3-dihydro-1H-inden-5-yl)-3-(7-methoxy-1,4-dimethyl-1H-benzo[d][1,2,3]triazol-5-yl)propanoic Acid, Formic Acid Salt] belongs 10 to 100 nM.

Still in this test, the particulars now being: Homo sapiens, BEAS-2B, NQO1 specific enzyme activity in BEAS-2B cells; in some determinations; read-out: EC50 values in some determinations.
As for `Cc1c(C(c2ccc3c(c2)C(N2Cc4ccccc4OC(C)(C)C2)CC3)C(C)(C)C(=O)O)ccc2c1nnn2C` (stereo not drawn) [Example 27, 3-(1,4-Dimethyl-1H-benzo[d][1,2,3]triazol-5-yl)-3-(3-(2,2-dimethyl-2,3-dihydrobenzo[f][1,4]oxazepin-4(5H)-yl)-2,3-dihydro-1H-inden-5-yl)-2,2-dimethylpropanoic Acid, 2 Formic Acid Salt], the EC50 was < 0.17 nM.
